{
  "source": "patent US20240391955A1",
  "about": "“PEPTIDE HAVING ANTI-AGING ACTIVITY, AND USE THEREOF” (CAREGEN CO., LTD., priority 2021, published 2024)",
  "key": {"collagen": {"tested_on": "collagen", "test": "Collagen protein secretion by ELISA in NIH3T3 fibroblasts", "assay_type": "cell-based, mouse", "details": "peptide 10, 50, 100 μM, 72 hours, FIG. 2", "protocol": "(§1) First, NIH3T3 cells and HaCaT cells (human keratinocyte cell line) were seeded in a 24-well plate at a cell density of 1×10^4 cell/well, and then the cells were cultured in DMEM medium containing 10% fetal bovine serum (FBS) for 24 hours. The cultured cells were washed once with serum free DMEM medium, and the peptide of the present invention was mixed in 2 mL of the serum free DMEM medium at each of concentrations of 10 μM, 50 μM, 100 μM, and 5 ng/ml, and dispensed into three wells by 500 μL per condition. NIH3T3 cells were treated with 5 ng/ml of TGF-β1 instead of the above peptide as a positive control (PC). HaCaT cells were treated with 10 nM of IGF-1 instead of the above peptide as a positive control (PC). The cells were cultured in a CO2 incubator at 37° C. for 72 hours.\n(§2) The medium of the cultured NIH3T3 and HaCaT cells was centrifuged to settle a suspended matter, a supernatant was transferred to an e-tube, and then each of ELISA (abcam, Cat No.: ab210579, UK) and hyaluronic acid (HA) ELISA (ECHELON biosciences, Cat No.: K-1200, USA) was performed using the same."}, "elastin gene": {"tested_on": "elastin gene", "test": "Elastin gene expression by RT-PCR in fibroblasts", "assay_type": "cell-based, mouse", "details": "NIH3T3 cells, peptide 10, 50, 100 μM, 24 hours, FIG. 1", "protocol": "(§3) First, NIH3T3 cells (mouse fibroblast cell line) were seeded in a 6-well plate at a cell density of 3×10^5 cell/well, and then the cells were cultured in DMEM medium containing 10% fetal bovine serum (FBS) for 24 hours. The cultured cells were washed once with serum free DMEM medium, and the peptide of the present invention was mixed in 1 mL of the serum free DMEM medium at each of concentrations of 10, 50, and 100 μM, and dispensed into the cells. A positive control (PC) was treated with 5 ng/ml of TGF-β1 instead of the above peptide. The cells were cultured in a CO2 incubator at 37° C. for 24 hours.\n(§4) The cultured cells were washed twice with PBS, and RNA was extracted from the cells using easy blue (iNtRON, Cat. No.: 17061, Korea). The amount of RNA extracted was quantified, 1,000 ng of RNA was added per tube, and RT reaction was performed using a kit (enzynomics, Cat. No.: […], Korea). RT-PCR was performed using a PCR kit (enzynomics, Cat. No.: […], Korea). The sequences of the primers of fibronectin and elastin used in RT-PCR and the sequence of the primer of GAPDH used to compare the total RNA amount of each treatment group are shown in [Table 2]."}, "hyaluronic acid": {"tested_on": "hyaluronic acid", "test": "Hyaluronic acid secretion by HA ELISA in HaCaT keratinocytes", "assay_type": "cell-based, human", "details": "peptide 10, 50, 100 μM, 72 hours, FIG. 2", "protocol": "as §1, §2"}, "AQP3": {"tested_on": "AQP3", "test": "AQP3 mRNA level by RT-PCR in HaCaT keratinocytes", "assay_type": "cell-based, human", "details": "HaCaT cells, peptide 10, 50, 100 μM, 24 hours, FIG. 3", "protocol": "(§5) First, HaCaT cells were seeded in a 6-well plate at a cell density of 3×10^5 cell/well, and then the cells were cultured in DMEM medium containing 10% fetal bovine serum (FBS) for 24 hours. The cultured cells were washed once with serum free DMEM medium, and then the peptide of the present invention was mixed in 1 mL of the serum free DMEM medium at each of concentrations of 10, 50, and 100 μM, and dispensed into the cells. A positive control (PC) was treated with 100 nM of EGF instead of the above peptide. The cells were cultured in a CO2 incubator at 37° C. for 24 hours.\n(§6) The cultured cells were washed twice with PBS, and then RNA was extracted from the cells using easy blue (iNtRON, Cat. No.: 17061, Korea). The extracted RNA was subjected to RT reaction using a kit (enzynomics, Cat. No.: RT200, Korea). Thereafter, RT-PCR was performed using a PCR kit (enzynomics, Cat. No.: R581T, Korea). The sequences of the primers of SIRT1 and AQP3 used in RT-PCR and the sequence of the primer of GAPDH used to compare the total RNA amount of each treatment group are shown in [Table 2]."}, "elastin": {"tested_on": "elastin", "test": "Elastin mRNA level after UVA irradiation, RT-PCR", "assay_type": "cell-based, mouse", "details": "NIH3T3 cells, peptide 10, 50, 100 μM, 6 J/cm^2 UVA, FIG. 5", "protocol": "as §5, with “First, NIH3T3 cells were” for “First, HaCaT cells were”, “density of 5×10^5 cell/well, and” for “density of 3×10^5 cell/well, and”, “treated with 50 μM of Quercetin” for “treated with 100 nM of EGF”, “μM of Quercetin instead of” for “nM of EGF instead of”, “C. for 6 hours.” for “C. for 24 hours.”\n(§7) The medium of the cultured cells was transferred to a tube (e-tube), 1 ml of PBS was added, and irradiation was performed with 6 J/cm^2 of UVA using a UV irradiator (VILBER LOURMAT, Cat No.: 3102-BSU, France). After removing PBS, 900 μL of the medium transferred to the tube was dispensed, and culture was performed in a CO2 incubator at 37° C. for 6 hours. The cultured cells were washed twice with PBS, and then RNA was extracted from the cells using easy blue (iNtRON, Cat. No.: 17061, Korea). The amount of RNA extracted was quantified, 1,000 ng of RNA was added per tube, and RT reaction was performed using a kit (enzynomics, Cat. No.: RT200, Korea) Thereafter, RT-PCR was performed using a PCR kit (enzynomics, Cat. No.: R581T, Korea). […]"}, "fibronectin": {"tested_on": "fibronectin", "test": "Fibronectin mRNA level after UVA irradiation, RT-PCR", "assay_type": "cell-based, mouse", "details": "NIH3T3 cells, peptide 10, 50, 100 μM, 6 J/cm^2 UVA, FIG. 5", "protocol": "as §5, with “First, NIH3T3 cells were” for “First, HaCaT cells were”, “density of 5×10^5 cell/well, and” for “density of 3×10^5 cell/well, and”, “treated with 50 μM of Quercetin” for “treated with 100 nM of EGF”, “μM of Quercetin instead of” for “nM of EGF instead of”, “C. for 6 hours.” for “C. for 24 hours.”\nas §7"}, "MMP-2": {"tested_on": "MMP-2", "test": "MMP-2 activity after UVA irradiation, gelatin zymography", "assay_type": "cell-based, mouse", "details": "NIH3T3 cells, culture medium, peptide 10, 50, 100 μM, 6 J/cm^2 UVA, FIG. 6"}, "MMP-1 [1]": {"tested_on": "MMP-1", "test": "MMP-1 expression after UVA irradiation, western blot", "assay_type": "cell-based, mouse", "details": "NIH3T3 cells, peptide 10, 50, 100 μM, 6 J/cm^2 UVA, FIG. 6", "protocol": "(§8) First, NIH3T3 cells were seeded in a 6-well plate at a cell density of 5×10^5 cell/well, and then the cells were cultured in DMEM medium containing 10% fetal bovine serum (FBS) for 24 hours. The cultured cells were washed once with serum free DMEM medium, and the peptide of the present invention was mixed in 1 mL of the serum free DMEM medium at each of concentrations of 10, 50, and 100 μM, and dispensed into the cells. A positive control (PC) was treated with 2.5 mM of N-acetylcysteine (NaC) instead of the above peptide.\nThe cells were cultured in a CO2 incubator at 37° C. for 1 hour. The medium of the cultured cells was transferred to a tube (e-tube), 1 ml of PBS was added, and irradiation was performed with 6 J/cm^2 of UVA using a UV irradiator (VILBER LOURMAT, Cat No.: 3102-BSU, France). After removing PBS, 900 μL of the medium transferred to the tube was added, and culture was performed in a CO2 incubator at 37° C. for 6 hours. The medium of the cultured cells was transferred to a tube, the cells were washed twice with PBS, and then a cell lysis buffer was added to lyse the cells. A sample was prepared by treating the cells with 5× sample buffer, and then SDS-PAGE was performed using 10% SDS-PAGE gel. The proteins isolated through SDS-PAGE were transferred to a PVDF membrane. Blocking was performed at room temperature for 1 hour using 5% skim milk. […]"}, "[2]": {"tested_on": "intracellular reactive oxygen species in NIH3T3 cells", "test": "Intracellular ROS level after UVA irradiation (DCFH-DA, FACS)", "assay_type": "cell-based, mouse", "details": "peptide 10, 50, 100 μM, 8 J/cm^2 UVA, 24 hours after irradiation, FIG. 4", "protocol": "as §8, with “medium, and then the peptide” for “medium, and the peptide”, “treated with 7.5 mM of” for “treated with 2.5 mM of”\nThe cells were cultured in a CO2 incubator at 37° C. for 1 hour. The medium of the cultured cells was transferred to a tube, 1 ml of PBS was added, and irradiation was performed with 8 J/cm^2 of UVA using a UV irradiator (VILBER LOURMAT, Cat No.: 3102-BSU, France). After removing PBS, 900 μL of the medium transferred to the tube was dispensed, and culture was performed in a CO2 incubator at 37° C. for 24 hours. After treatment with 10 μM of dichloro-dihydro-fluorescein diacetate (DCFH-DA), wrapping with a foil was performed, and culture was performed in a CO2 incubator at 37° C. for 30 minutes. The cells were washed twice with PBS, and 500 μL of 1XTE was dispensed to isolate the cells. After centrifugation, the cells were washed with PBS, and a fluorescence value was measured through FACS."}, "fibronectin gene": {"tested_on": "fibronectin gene", "test": "Fibronectin gene expression by RT-PCR in fibroblasts", "assay_type": "cell-based, mouse", "details": "NIH3T3 cells, peptide 10, 50, 100 μM, 24 hours, FIG. 1", "protocol": "as §3, §4"}, "MMP-1 [3]": {"tested_on": "MMP-1", "test": "MMP-1 protein after heat treatment, western blot", "assay_type": "cell-based, mouse", "details": "NIH3T3 cells, peptide 10, 50, 100 μM, 44° C. for 40 minutes, FIG. 7", "protocol": "as §8\nThe cells were cultured in a CO2 incubator at 37° C. for 24 hours. A lid and a lower plate of the 6-well plate were sealed with a paraffin film for heat treatment, the lower plate was immersed in a water bath at 44° C., and culture was performed for 40 minutes. After removing the medium, 1 mL of serum free DMEM medium was added, and culture was performed in a CO2 incubator at 37° C. for 8 hours. Thereafter, the cells were washed twice with PBS, and then a cell lysis buffer was added to obtain a lysate.\nA sample was prepared by treating the cells with 5× sample buffer, and then SDS-PAGE was performed using 10% SDS-PAGE gel. The proteins isolated through SDS-PAGE were transferred to a PVDF membrane, and blocking was performed at room temperature for 1 hour using 5% skin milk. […]"}, "SIRT1": {"tested_on": "SIRT1", "test": "SIRT1 mRNA level by RT-PCR in HaCaT keratinocytes", "assay_type": "cell-based, human", "details": "HaCaT cells, peptide 10, 50, 100 μM, 24 hours, FIG. 3", "protocol": "as §5, §6"}, "Colla1": {"tested_on": "Colla1", "test": "Colla1 mRNA level after UVA irradiation, RT-PCR", "assay_type": "cell-based, mouse", "details": "NIH3T3 cells, peptide 10, 50, 100 μM, 6 J/cm^2 UVA, FIG. 5", "protocol": "as §5, with “First, NIH3T3 cells were” for “First, HaCaT cells were”, “density of 5×10^5 cell/well, and” for “density of 3×10^5 cell/well, and”, “treated with 50 μM of Quercetin” for “treated with 100 nM of EGF”, “μM of Quercetin instead of” for “nM of EGF instead of”, “C. for 6 hours.” for “C. for 24 hours.”\nas §7"}},
  "data": [
    {"substance": "KRRRKRK [SEQ ID NO: 1]", "values": [
      {"measurement": "protein secretion of collagen", "setting": "collagen", "result": "gradually increased as the concentration of the peptide increased"},
      {"measurement": "expression of elastin gene", "setting": "elastin gene", "result": "gradually increased as the concentration of the peptide increased"},
      {"measurement": "protein secretion of hyaluronic acid", "setting": "hyaluronic acid", "result": "gradually increased as the concentration of the peptide increased"},
      {"measurement": "mRNA level of AQP3", "setting": "AQP3", "result": "increased"},
      {"measurement": "mRNA level of elastin decreased by UV irradiation", "setting": "elastin", "result": "increased again"},
      {"measurement": "mRNA level of fibronectin decreased by UV irradiation", "setting": "fibronectin", "result": "increased again"},
      {"measurement": "activity of MMP-2 increased by UV irradiation", "setting": "MMP-2", "result": "inhibited"},
      {"measurement": "expression of MMP-1 increased by UV irradiation", "setting": "MMP-1 [1]", "result": "inhibited"},
      {"measurement": "intracellular reactive oxygen species level increased by UV irradiation", "setting": "[2]", "result": "decreased"},
      {"measurement": "expression of fibronectin gene", "setting": "fibronectin gene", "result": "gradually increased as the concentration of the peptide increased"},
      {"measurement": "amount of secretion of MMP-1 protein whose expression was increased by heat treatment", "setting": "MMP-1 [3]", "result": "decreased"},
      {"measurement": "mRNA level of SIRT1", "setting": "SIRT1", "result": "increased"},
      {"measurement": "mRNA level of Colla1 decreased by UV irradiation", "setting": "Colla1", "result": "increased again"}
    ]}
  ]
}
